In US7247734B2 (Vernalis (Cambridge) Limited, priority 2001, dated 2007):
Where two headings read alike, the source gives them in different places.

Target: T1, yeast HSP90 (Saccharomyces cerevisiae, UniProt P02829)
T1 construct: made in house; host or cells: E. coli
Assay: Malachite green HSP90 ATPase assay
Assay type: biochemical
Description: Two methods have been developed to measure the intrinsic ATPase activity of HSP90, using yeast HSP90 as a model system. The first method utilises a regenerating coupled enzyme assay. The second assay, based on the use of malachite green for the measurement of inorganic phosphate, was designed for high throughput screening (HTS) to identify novel HSP90 inhibitor drug candidates.
Colorimetric assays for the determination of phosphate, based on the formation of a phosphomolybdate complex, can be carried out in a few steps with inexpensive reagents and are well suited to the automation required for high throughput screening (see, e.g., Cogan et al., 1999). Enzymes that release inorganic phosphate are assayed using the reaction of the cationic dye, malachite green, with the a complex formed by a reaction of the inorganic phosphate with molybdate to generate a blue-green colour with an absorbance maximum at 610 nm (see, e.g., Baykov et al., 1988; Harder et al., 1994; Maehama et al., 2000). The method has been used in both high throughput (see, e.g., Rumsfeld et al., 2000) and ultra-high throughput screening formats (see, e.g., Layery et al., 2001) for a variety of non-HSP90 ATPases. However, this method is complicated by the non-enzymatic hydrolysis of ATP in the presence of acidic malachite green reagent, causing an increase in colour (see, e.g., Chan et al., 1986; Henkel et al., 1988). This process is mediated by molybdate and can be overcome by the addition of sodium citrate immediately after the reagent (see, e.g., Lanzetta et al., 1979; Schirmer et al., 1998; Baginski et al., 1975). This modification has been adapted to the 96-well microtitre plate assay previously described for other ATPases (see, e.g., Lanzetta et al., 1979) to produce the following protocol for HSP90 ATPase, which is suitable for high throughput screening.
Chemicals are of the highest purity commercially available and all aqueous solutions are made up in AR water. Because of the need to minimise contamination with inorganic phosphate, precautions should be taken with solutions and apparatus used in the assays. Glassware and pH meters are rinsed with double distilled or deionised water before use and, wherever possible, plastic ware should be used. Gloves are worn for all procedures. • (1) Immulon 96-well (Thermo Labsystems, Basingstoke, UK) or Cliniplate 384-well flat-bottomed polystyrene multiwell plates (Thermo Labsystems). • (2) Assay buffer of (a) 100 mM Tris-HCl, pH 7.4, (b) 20 mM KCl, (c) 6 mM MgCl2. Stored at 4° C. • (3) 0.0812% (w/v) malachite green (M 9636, Sigma Aldrich Ltd., Poole, UK). Stored at room temperature. • (4) 2.32% (w/v) polyvinyl alcohol USP (P 1097, Sigma Aldrich Ltd, Poole, UK) in boiling water (see Comment 1), allowed to cool, and stored at room temperature. • (5) 5.72% (w/v) ammonium molybdate in 6 M hydrochloric acid. Stored at room temperature. • (6) 34% (w/v) sodium citrate. Stored at room temperature. • (7) ATP, disodium salt, special quality (519979, Boehringer Mannheim, Lewes, UK). Stored at 4° C. • (8) E. coli expressed yeast HSP90 protein, purified >95% (see, e.g., Panaretou et al., 1998) and stored at −80° C. as 10 μl aliquots containing 0.5 mg of protein. Method
The following protocol was used: • (1) On the day of use, prepare the malachite green reagent from the stock solutions. Mix (a) 2 parts of malachite green, (b) 1 part of polyvinyl alcohol, (c) 1 part of ammonium molybdate, and (d) 2 parts of water. Initially, the reagent is a dark brown colour, but after standing at room temperature for about 2 h, this becomes a golden yellow colour and is ready for use. • (2) For the high throughput screening assays, the test compounds are dissolved at 200 μM in 2.0% DMSO and contained in daughter plates derived from the chemical libraries. Transfer 5 μl of each sample from the daughter plate to each well of the assay plate using automated equipment (see Comment 3). This represents a final concentration in the well of 40 μM.

[1] = activity class, read-out: Hsp90 IC50
[2] = activity range, ATPase assay, read-out: ATPase IC50
[3] = ATPase IC50, activity range, ATPase assay

T1 sequence (P02829 whole entry, looked up): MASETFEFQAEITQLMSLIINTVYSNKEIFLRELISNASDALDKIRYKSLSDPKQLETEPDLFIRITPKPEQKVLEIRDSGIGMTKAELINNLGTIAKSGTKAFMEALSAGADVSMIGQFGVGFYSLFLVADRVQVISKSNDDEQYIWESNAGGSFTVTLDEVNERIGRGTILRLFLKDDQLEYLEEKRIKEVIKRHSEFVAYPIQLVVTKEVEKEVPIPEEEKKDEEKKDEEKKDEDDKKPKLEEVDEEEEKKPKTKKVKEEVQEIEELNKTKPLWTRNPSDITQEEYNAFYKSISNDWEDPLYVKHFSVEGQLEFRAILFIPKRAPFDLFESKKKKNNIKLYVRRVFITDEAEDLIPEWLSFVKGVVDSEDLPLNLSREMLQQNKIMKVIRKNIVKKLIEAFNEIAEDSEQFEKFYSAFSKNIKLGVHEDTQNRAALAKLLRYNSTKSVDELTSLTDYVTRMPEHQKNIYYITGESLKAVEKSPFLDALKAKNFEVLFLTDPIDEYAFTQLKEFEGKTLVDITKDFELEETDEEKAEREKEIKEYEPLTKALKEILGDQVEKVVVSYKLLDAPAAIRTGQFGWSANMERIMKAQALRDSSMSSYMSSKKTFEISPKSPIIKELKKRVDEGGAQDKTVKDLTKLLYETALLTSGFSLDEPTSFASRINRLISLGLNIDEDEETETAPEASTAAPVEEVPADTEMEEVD

SMILES: CC(=O)Nc1ccc(-c2n[nH]c(C)c2-c2ccc3c(c2)OCCO3)cc1 [Example 112]
- IC50 [1]: > 10 µM

SMILES: CC(=O)Nc1cccc(-c2n[nH]c(C)c2-c2ccc3c(c2)OCCO3)c1 [Example 113]
- IC50 [1]: > 10 µM

SMILES: CCOC(=O)c1ccc(-c2n[nH]c(C)c2-c2ccc3c(c2)OCCO3)cc1 [Example 114]
- IC50 [1]: > 10 µM

SMILES: Cc1[nH]nc(-c2ccc(C(=O)O)cc2)c1-c1ccc2c(c1)OCCO2 [Example 115]
- IC50 [1]: > 10 µM

SMILES: CCOC(=O)c1cccc(-c2n[nH]c(C)c2-c2ccc3c(c2)OCCO3)c1 [Example 116]
- IC50 [1]: > 10 µM

SMILES: Cc1[nH]nc(-c2ccc(C#N)cc2)c1-c1ccc2c(c1)OCCO2 [Example 117]
- IC50 [1]: > 10 µM

SMILES: Cc1[nH]nc(-c2cccc(C#N)c2)c1-c1ccc2c(c1)OCCO2 [Example 118]
- IC50 [1]: > 10 µM

SMILES: CCc1cc(-c2n[nH]c(C)c2-c2nc3ccccc3s2)c(O)cc1OCC(=O)NN [Example 119]
- IC50 [1]: > 10 µM

SMILES: CCc1cc(-c2n[nH]cc2-c2ccc3c(c2)OCO3)c(O)cc1OC [Example 120]
- IC50 [1]: > 10 µM

SMILES: Cc1[nH]nc(-c2ccc3c(c2O)OCO3)c1-c1ccc2c(c1)OCCO2 [Example 121]
- IC50 [1]: > 10 µM

SMILES: COc1ccc(-c2n[nH]cc2-c2ccc3c(c2)OCCO3)c(O)c1 [Example 122]
- IC50 [1]: > 10 µM

SMILES: Cc1[nH]nc(-c2ccc(OCC(=O)O)cc2O)c1-c1ccc(F)cc1 [Example 123]
- IC50 [1]: > 10 µM

SMILES: CCc1cc(-c2n[nH]cc2-c2nc(C)cs2)c(O)cc1OCc1cccc(C)c1 [Example 124]
- IC50 [1]: > 10 µM

SMILES: O=C(O)COc1ccc(-c2n[nH]cc2-c2ccc3c(c2)OCCO3)c(O)c1 [Example 125]
- IC50 [1]: > 10 µM

SMILES: CCCc1cc(-c2n[nH]cc2-c2ccccc2)c(O)cc1OC [Example 126]
- IC50 [1]: > 10 µM

SMILES: Cc1[nH]nc(-c2cc(Cl)c(O)cc2O)c1-c1ccccc1 [Example 127]
- IC50 [1]: > 10 µM

SMILES: CCc1cc(-c2n[nH]cc2-c2ccccc2)c(O)cc1OC [Example 128]
- IC50 [1]: > 10 µM

SMILES: Cc1nc(-c2c[nH]nc2-c2ccc(O)cc2O)cs1 [Example 129]
- IC50 [1]: > 10 µM

SMILES: CCOc1cc(O)c(-c2n[nH]cc2-c2nc(C)cs2)cc1CC [Example 130]
- IC50 [1]: > 10 µM

SMILES: CCc1cc(-c2n[nH]cc2-c2nc(C)cs2)c(O)cc1OC [Example 131]
- IC50 [1]: > 10 µM

SMILES: COc1ccc(-c2c(-c3ccc(O)c(C)c3O)n[nH]c2C)cc1 [Example 132]
- IC50 [1]: > 10 µM

SMILES: Cc1ccc(-n2cc(-c3c[nH]nc3-c3ccc(O)cc3O)cn2)cc1 [Example 136]
- IC50 [1]: > 10 µM

SMILES: Cc1[nH]nc(-c2ccc(O)cc2O)c1-c1cnn(-c2ccccc2)c1 [Example 137]
- IC50 [1]: > 10 µM

SMILES: Cc1[nH]nc(-c2cc(Cl)c(O)c(Cl)c2O)c1-c1ccccc1 [Example 138]
- IC50 [1]: > 10 µM

SMILES: CCCc1cc(-c2n[nH]cc2-c2ccc3c(c2)OCO3)c(O)cc1O [Example 140]
- IC50 [1]: > 10 µM

SMILES: CCc1cc(-c2n[nH]cc2-c2ccc(OC)cc2)c(O)cc1O [Example 141]
- IC50 [1]: 10 to 100 µM

SMILES: Oc1ccc(-c2n[nH]c(C(F)(F)F)c2-c2ccc3c(c2)OCCO3)c(O)c1 [Example 142]
- IC50 [1]: > 10 µM

SMILES: Cc1ncc(-c2c(-c3ccc(O)cc3O)n[nH]c2C(F)(F)F)s1 [Example 143]
- IC50 [1]: > 10 µM

SMILES: Oc1ccc(-c2n[nH]c(C(F)(F)F)c2-c2ccccc2Cl)c(O)c1 [Example 144]
- IC50 [1]: > 10 µM

SMILES: CCc1cc(-c2n[nH]cc2-c2cnn(-c3ccccc3)c2)c(O)cc1O [Example 145]
- IC50 [1]: > 10 µM

SMILES: CCc1cc(-c2n[nH]c(C)c2-c2nc3ccccc3s2)c(O)cc1O [Example 146]
- IC50 [1]: > 10 µM

SMILES: COc1ccc(-c2c(-c3cc(Cl)c(F)cc3O)n[nH]c2C)cc1 [Example 147]
- IC50 [1]: > 10 µM

SMILES: Cc1[nH]nc(-c2cccc(Cl)c2Cl)c1-c1ccc2c(c1)OCCO2 [Example 150]
- IC50 [1]: > 10 µM

SMILES: COc1ccc(-c2c(C)n[nH]c2-c2cnc(N)nc2)cc1 [Example 151, 5-[4-(4-Methoxy-phenyl)-5-methyl-2H-pyrazol-3-yl]-pyrimidin-2-ylamine]
- IC50 [1]: > 10 µM

SMILES: COc1ccc(-c2c(C)n[nH]c2-c2cc(C)nc(N)n2)cc1 [Example 152, 4-[4-(4-Methoxy-phenyl)-5-methyl-2H-pyrazol-3-yl]-6-methyl-pyrimidin-2-ylamine]
- IC50 [1]: > 10 µM

SMILES: N#CCCCCOc1cccc(-c2c[nH]nc2-c2cc(Cl)c(O)cc2O)c1 [Example 155]
- IC50 [1]: < 10 µM

SMILES: COc1ccc(-c2ccc(-c3c[nH]nc3-c3cc(Cl)c(O)cc3O)cc2)cc1OC [Example 157]
- IC50 [1]: < 10 µM

SMILES: Cc1[nH]nc(-c2ccc(C(N)=O)cc2)c1-c1ccc2c(c1)OCCO2 [Example 158]
- IC50 [2]: > 50 µM

SMILES: Cc1[nH]nc(-c2ccc(C(=O)NCC3CCCO3)cc2)c1-c1ccc2c(c1)OCCO2 (centres unmarked) [Example 159]
- IC50 [2]: > 50 µM

SMILES: Cc1[nH]nc(-c2ccc(C(=O)Nc3cccnc3)cc2)c1-c1ccc2c(c1)OCCO2 [Example 160]
- IC50 [2]: > 50 µM

SMILES: Cn1cc(-c2ccc(Br)cc2)c(-c2cc(Cl)c(O)cc2O)n1 [Example 161, 4-[4-(4-Bromo-phenyl)-1-methyl-1H-pyrazol-3-yl]-6-chloro-benzene-1,3-diol]
- IC50 [2]: > 50 µM

SMILES: CCc1cc(-c2nn(C)cc2-c2ccc(OC)c(OC)c2)c(O)cc1O [Example 162, 4-[4-(3,4-Dimethoxy-phenyl)-1-methyl-1H-pyrazol-3-yl]-6-ethyl-benzene-1,3-diol]
- IC50 [2]: > 50 µM

SMILES: Cc1c(-c2ccc(Br)cc2)c(-c2cc(Cl)c(O)cc2O)nn1C [Example 163]
- IC50 [2]: > 50 µM

SMILES: Cc1c(-c2ccccc2)c(-c2cc(Cl)c(O)cc2O)nn1C [Example 164, 4-Chloro-6-(1,5-dimethyl-4-phenyl-1H-pyrazol-3-yl)-benzene-1,3-diol]
- IC50 [2]: > 50 µM

SMILES: COc1ccc(-c2cn(C)nc2-c2cc(Cl)c(O)cc2O)cc1OC [Example 165]
- IC50 [2]: > 50 µM

SMILES: OCCn1cc(-c2ccc(Br)cc2)c(-c2cc(Cl)c(O)cc2O)n1 [Example 166, 4-[4-(4-Bromo-phenyl)-1-(2-hydroxy-ethyl)-1H-pyrazol-3-yl]-6-chloro-benzene-1,3-diol]
- IC50 [2]: > 50 µM

SMILES: COc1ccc(-c2c(-c3cc(Cl)c(O)cc3O)n[nH]c2C(=O)O)cc1 [Example 167, 5-(5-Chloro-2,4-dihydroxy-phenyl)-4-(4-methoxy-phenyl)-2H-pyrazole-3-carboxylic acid]
- IC50 [3]: < 50 µM

SMILES: CNC(=O)c1[nH]nc(-c2cc(Cl)c(O)cc2O)c1-c1ccc(OC)cc1 [Example 168, 5-(5-Chloro-2,4-dihydroxy-phenyl)-4-(4-methoxy-phenyl)-2H-pyrazole-3-carboxylic acid methylamide]
- IC50 [3]: < 50 µM

SMILES: COc1ccc(-c2c(-c3cc(Cl)c(O)cc3O)n[nH]c2C(=O)NC(C)C)cc1 [Example 170, 5-(5-Chloro-2,4-dihydroxy-phenyl)-4-(4-methoxy-phenyl)-2H-pyrazole-3-carboxylic acid isopropylamide]
- IC50 [3]: < 50 µM

SMILES: COc1ccc(-c2c(-c3cc(Cl)c(O)cc3O)n[nH]c2C(=O)NCc2ccccc2)cc1 [Example 171, 5-(5-Chloro-2,4-dihydroxy-phenyl)-4-(4-methoxy-phenyl)-2H-pyrazole-3-carboxylic acid benzylamide]
- IC50 [2]: < 50 µM

SMILES: COc1ccc(-c2c(-c3cc(Cl)c(O)cc3O)n[nH]c2C(N)=O)cc1 [Example 172, 5-(5-Chloro-2,4-dihydroxy-phenyl)-4-(4-methoxy-phenyl)-2H-pyrazole-3-carboxylic acid amide]
- IC50 [3]: < 50 µM

SMILES: Oc1cc(O)c(-c2n[nH]cc2-c2ccc3c(c2)CCO3)cc1Cl [Example 173]
- IC50 [2]: < 50 µM

SMILES: Oc1cc(O)c(-c2n[nH]cc2-c2ccsc2)cc1Cl [Example 174]
- IC50 [2]: < 50 µM
